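Each compound was tested at five concentrations against cells in 96-well plates for 48 hours. At the GI50, growth is halved.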 Activity calls are given as the source filed them. Cut-off read from the data, not from the text of the source: active = GI50 up to about 1.1 µM and inactive = higher.
Assays:
Experiment in all cases: inhibition of tumour cell growth, NCI panel, 48 h
[1] = system: A549
[2] = system: ACHN
[3] = system: CAKI-1
[4] = system: COLO 205
[5] = system: HOP-18
[6] = system: HT-29
[7] = system: K562
[8] = system: NCI-H522
[9] = system: RXF 393
[10] = system: SNB-19
[11] = system: TK-10
[12] = system: UO-31
[13] = system: DU-145
[14] = system: HCC 2998
[15] = system: Hs-578T
[16] = system: KM12
[17] = system: MCF7
[18] = system: Malme-3M
[19] = system: SR
[20] = system: T47D

**Q.** Which results are given for `Cn1nc(-c2ccccc2)c(C(=O)/C=C/c2ccc(Cl)cc2)c(N2CCOCC2)c1=O`?
**A.** GI50 [1]: 3.89 µM (inactive); GI50 [2]: 4.42 µM (inactive); GI50 [3]: 0.652 µM (active); GI50 [4]: 1.99 µM (inactive); GI50 [5]: 4.48 µM (inactive); GI50 [6]: 1.83 µM (inactive); GI50 [7]: 2.79 µM (inactive); GI50 [8]: 2.43 µM (inactive); GI50 [9]: 2.34 µM (inactive); GI50 [10]: 14.3 µM (inactive); GI50 [11]: 7.94 µM (inactive); GI50 [12]: 9.71 µM (inactive)

**Q.** `COC(=O)c1c(O)ccc2c1c1c(n2C)C(=O)c2ccccc2C1=O` was tested. Which GI50 [1] did it give?
**A.** 14.5 µM (inactive)

**Q.** What about the GI50 [2] of the same compound?
**A.** 9.29 µM (inactive)

**Q.** What about the GI50 [3] of the same compound?
**A.** 7.69 µM (inactive)

**Q.** And the GI50 [4]?
**A.** 65.9 µM (inactive)

**Q.** And the GI50 [13]?
**A.** 11.9 µM (inactive)

**Q.** What about the GI50 [14] of the same compound?
**A.** 11.3 µM (inactive)

**Q.** And the GI50 [6]?
**A.** 78.2 µM (inactive)

**Q.** What about the GI50 [15] of the same compound?
**A.** 6.93 µM (inactive)

**Q.** And the GI50 [7]?
**A.** > 100 µM (inactive)

**Q.** And the GI50 [16]?
**A.** 57.7 µM (inactive)

**Q.** What about the GI50 [17] of the same compound?
**A.** 9.18 µM (inactive)

**Q.** And the GI50 [18]?
**A.** 42.5 µM (inactive)

**Q.** And the GI50 [8]?
**A.** 18.4 µM (inactive)

**Q.** And the GI50 [9]?
**A.** 15.4 µM (inactive)

**Q.** And the GI50 [10]?
**A.** 16.3 µM (inactive)

**Q.** And the GI50 [19]?
**A.** 16.2 µM (inactive)

**Q.** And the GI50 [20]?
**A.** 3.42 µM (inactive)

**Q.** What about the GI50 [11] of the same compound?
**A.** 26.7 µM (inactive)

**Q.** What about the GI50 [12] of the same compound?
**A.** 6.75 µM (inactive)

**Q.** For `COc1ccc(C(=O)C(C(=O)C(=O)Nc2nc3ccc(OC)cc3s2)c2ccc(OC)cc2)cc1` (stereo unspecified), which GI50 [1] is on record?
**A.** > 100 µM (inactive)

**Q.** And the GI50 [2]?
**A.** > 100 µM (inactive)

**Q.** What about the GI50 [3] of the same compound?
**A.** > 100 µM (inactive)

**Q.** And the GI50 [4]?
**A.** > 100 µM (inactive)

**Q.** What about the GI50 [14] of the same compound?
**A.** > 100 µM (inactive)

**Q.** What about the GI50 [5] of the same compound?
**A.** 90.6 µM (inactive)

**Q.** What about the GI50 [6] of the same compound?
**A.** > 100 µM (inactive)

**Q.** And the GI50 [7]?
**A.** > 100 µM (inactive)

**Q.** What about the GI50 [16] of the same compound?
**A.** > 100 µM (inactive)

**Q.** What about the GI50 [18] of the same compound?
**A.** > 100 µM (inactive)

**Q.** And the GI50 [10]?
**A.** > 100 µM (inactive)

**Q.** What about the GI50 [11] of the same compound?
**A.** > 100 µM (inactive)

**Q.** What about the GI50 [12] of the same compound?
**A.** 89.5 µM (inactive)

**Q.** Which GI50 [1] does the source give for `CCOC(=O)CCC(NC(=O)Cc1ccc(Nc2nc3ccccc3nc2-c2ccccc2)cc1)C(=O)OCC` (stereo unspecified) here?
**A.** 79.6 µM (inactive)

**Q.** And the GI50 [2]?
**A.** 41.5 µM (inactive)

**Q.** What about the GI50 [3] of the same compound?
**A.** > 100 µM (inactive)

**Q.** What about the GI50 [4] of the same compound?
**A.** > 100 µM (inactive)

**Q.** And the GI50 [13]?
**A.** > 100 µM (inactive)

**Q.** What about the GI50 [14] of the same compound?
**A.** > 100 µM (inactive)

**Q.** What about the GI50 [6] of the same compound?
**A.** > 100 µM (inactive)

**Q.** What about the GI50 [15] of the same compound?
**A.** 10.2 µM (inactive)

**Q.** And the GI50 [7]?
**A.** > 100 µM (inactive)

**Q.** What about the GI50 [16] of the same compound?
**A.** > 100 µM (inactive)

**Q.** And the GI50 [17]?
**A.** > 100 µM (inactive)

**Q.** And the GI50 [18]?
**A.** 33 µM (inactive)

**Q.** And the GI50 [8]?
**A.** 20.7 µM (inactive)

**Q.** What about the GI50 [9] of the same compound?
**A.** 10.3 µM (inactive)

**Q.** And the GI50 [10]?
**A.** 24.2 µM (inactive)

**Q.** And the GI50 [19]?
**A.** > 100 µM (inactive)

**Q.** What about the GI50 [20] of the same compound?
**A.** > 100 µM (inactive)

**Q.** What about the GI50 [11] of the same compound?
**A.** 14 µM (inactive)

**Q.** And the GI50 [12]?
**A.** > 100 µM (inactive)

**Q.** What does the source list for `CC(C)NC(=O)OCc1c(COC(=O)NC(C)C)c(-c2cc[n+](COC(=O)C3CC3)cc2)n2c1CCC2`?
**A.** GI50 [1]: > 100 µM (inactive); GI50 [2]: 32.4 µM (inactive); GI50 [3]: > 100 µM (inactive); GI50 [4]: > 100 µM (inactive); GI50 [13]: > 100 µM (inactive); GI50 [14]: > 100 µM (inactive); GI50 [6]: > 100 µM (inactive); GI50 [15]: > 100 µM (inactive); GI50 [7]: > 100 µM (inactive); GI50 [16]: > 100 µM (inactive); GI50 [17]: > 100 µM (inactive); GI50 [18]: > 100 µM (inactive); GI50 [8]: > 100 µM (inactive); GI50 [9]: 50.1 µM (inactive); GI50 [10]: > 100 µM (inactive); GI50 [19]: > 100 µM (inactive); GI50 [20]: > 100 µM (inactive); GI50 [11]: > 100 µM (inactive); GI50 [12]: > 100 µM (inactive)

**Q.** `O=C(C(=O)n1ccc2ccccc21)c1c[nH]c2ccccc12` was tested. Which GI50 [1] did it give?
**A.** > 10 µM (inactive)

**Q.** What about the GI50 [2] of the same compound?
**A.** > 10 µM (inactive)

**Q.** What about the GI50 [3] of the same compound?
**A.** > 10 µM (inactive)

**Q.** And the GI50 [4]?
**A.** > 10 µM (inactive)

**Q.** What about the GI50 [13] of the same compound?
**A.** > 10 µM (inactive)

**Q.** And the GI50 [14]?
**A.** > 10 µM (inactive)

**Q.** What about the GI50 [6] of the same compound?
**A.** > 10 µM (inactive)

**Q.** What about the GI50 [15] of the same compound?
**A.** > 10 µM (inactive)

**Q.** And the GI50 [7]?
**A.** > 10 µM (inactive)

**Q.** And the GI50 [16]?
**A.** > 10 µM (inactive)

**Q.** And the GI50 [17]?
**A.** > 10 µM (inactive)

**Q.** And the GI50 [18]?
**A.** > 10 µM (inactive)

**Q.** What about the GI50 [8] of the same compound?
**A.** > 10 µM (inactive)

**Q.** What about the GI50 [9] of the same compound?
**A.** > 10 µM (inactive)

**Q.** And the GI50 [10]?
**A.** > 10 µM (inactive)

**Q.** What about the GI50 [19] of the same compound?
**A.** > 10 µM (inactive)

**Q.** What about the GI50 [20] of the same compound?
**A.** > 10 µM (inactive)

**Q.** What about the GI50 [11] of the same compound?
**A.** > 10 µM (inactive)

**Q.** What about the GI50 [12] of the same compound?
**A.** > 10 µM (inactive)
